One data set relates to HIV-IIIb (wildtype). Description: Antiviral assay in MT4 cells, HIV-IIIb wildtype. It counts as cell-based, HIV-1. The note with it: read-out: WT EC50. The gist of the method:
(§1)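 Compounds were titrated as 3-fold serial dilutions at 10 concentrations, in quadruplicate, against 2000 MT4 cells/well that had been infected for 3 h with HIV-IIIb at 0.004 m.o.i. Viruses were wildtype or integrase T174I mutants from breakthrough selection or dose-escalation passaging; mock-infected cells were run in parallel. After 5 days' culture, EC50 was derived as 50% reduction of CellTiter-Glo luminescence, which reflects HIV-1 replication.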

In another data set the test system is HIV-IIIb IN T174I DE. The data set is described as follows: Antiviral assay in MT4 cells, HIV-IIIb IN T174I DE virus (from dose escalation passaging). It is filed as cell-based, HIV-1. As to conditions: Human immunodeficiency virus 1, IIIB, MT4, 120 h, read-out: T174I DE EC50, MT4 cells, HIV-IIIb IN T174I DE (dose escalation), 5 days, CellTiter-Glo. The gist of the method: as §1
(Cellular ATP, detected with luciferase, serves as a proxy for viable cell number.)

A short description of data set [1]: Hum MS stability (human microsomal stability half-life). The note with it: human microsomes.
For another data set, the system named is HIV-IIIb IN T174I BT. The data set is described as follows: Antiviral assay in MT4 cells, HIV-IIIb IN T174I BT virus (from viral breakthrough). It counts as cell-based, HIV-1. The note with it: Human immunodeficiency virus 1, IIIB, MT4, 120 h, read-out: T174I BT EC50, MT4 cells, HIV-IIIb IN T174I BT (viral breakthrough), 5 days, CellTiter-Glo. An outline of the steps:
as §1

Setting [2] is: Human immunodeficiency virus 1, IIIB, MT4, 120 h.

Where two headings read alike, the source gives them in different places.

`Cc1cc2nc(-c3ccc4c(c3)c(C3CCN(C5CS(=O)(=O)C5)CC3)nn4C)sc2c(-c2ccc(Cl)cc2)c1[C@H](OC(C)(C)C)C(=O)O` [Compound 10, (S)-2-(tert-butoxy)-2-(7-(4-chlorophenyl)-2-(3-(1-(1,1-dioxidothietan-3-yl)piperidin-4-yl)-1-methyl-1H-indazol-5-yl)-5-methylbenzo[d]thiazol-6-yl)acetic Acid]: the figures for the EC50 in the data set with HIV-IIIb (wildtype) (setting [2]), in the data set on HIV-IIIb IN T174I DE and in the data set on HIV-IIIb IN T174I BT were 10 nM, 303 nM and 275 nM, respectively. In data set [1], this compound gave a half-life of 3.58 h.
As for `Cc1cc2nc(-c3ccc4c(n3)c(N3CCN(C5COC5)CC3)nn4C)sc2c(-c2ccc(Cl)cc2)c1[C@H](OC(C)(C)C)C(=O)O` [Compound 15, (S)-2-(tert-butoxy)-2-(7-(4-chlorophenyl)-5-methyl-2-(1-methyl-3-(4-(oxetan-3-yl)piperazin-1-yl)-1H-pyrazolo[4,3-b]pyridin-5-yl)benzo[d]thiazol-6-yl)acetic Acid], the EC50 in the data set on HIV-IIIb (wildtype) (setting [2]) is 4 nM; with HIV-IIIb IN T174I DE it was 3070 nM; in the data set with HIV-IIIb IN T174I BT, 657 nM. The compound also registered a half-life in data set [1] of 2.83 h.
`Cc1cc2nc(-c3cnc4c(c3)c(C3CCN(C5COC5)CC3)cn4C)sc2c(-c2ccc(Cl)cc2)c1[C@H](OC(C)(C)C)C(=O)O` [Compound 17, (S)-2-(tert-butoxy)-2-(7-(4-chlorophenyl)-5-methyl-2-(1-methyl-3-(1-(oxetan-3-yl)piperidin-4-yl)-1H-pyrrolo[2,3-b]pyridin-5-yl)benzo[d]thiazol-6-yl)acetic Acid]: the EC50 in the data set on HIV-IIIb (wildtype) (setting [2]) was determined as 8 nM; in the data set on HIV-IIIb IN T174I DE, 786 nM; in the data set with HIV-IIIb IN T174I BT it was 238 nM. In data set [1], this compound returned a half-life of 4.7 h.
As to `Cc1cc2nc(-c3ccc4c(c3)c(C3CCOCC3)nn4C)sc2c(-c2ccc(Cl)cc2)c1[C@H](OC(C)(C)C)C(=O)O` [Compound 19, (S)-2-(tert-butoxy)-2-(7-(4-chlorophenyl)-5-methyl-2-(1-methyl-3-(tetrahydro-2H-pyran-4-yl)-1H-indazol-5-yl)benzo[d]thiazol-6-yl)acetic Acid], the EC50 was determined as 12 nM with HIV-IIIb (wildtype) (setting [2]), 2780 nM in the data set with HIV-IIIb IN T174I DE and 1170 nM with HIV-IIIb IN T174I BT. The half-life in data set [1] was determined as 4.15 h.
With `[2H]C([2H])([2H])C(O[C@H](C(=O)O)c1c(C)cc2nc(-c3ccc4c(c3)c(C3CCN(C5COC5)CC3)nn4C)sc2c1-c1ccc(Cl)cc1)(C([2H])([2H])[2H])C([2H])([2H])[2H]` [Compound 21, (S)-2-(7-(4-chlorophenyl)-5-methyl-2-(1-methyl-3-(1-(oxetan-3-yl)piperidin-4-yl)-1H-indazol-5-yl)benzo[d]thiazol-6-yl)-2-((2-(methyl-d3)propan-2-yl-1,1,1,3,3,3-d6)oxy)acetic Acid], the EC50 came to 4 nM in the data set with HIV-IIIb (wildtype) (Human immunodeficiency virus 1, 120 h, MT4 cells, HIV-IIIb wildtype, 5 days, CellTiter-Glo); 239 nM in the data set with HIV-IIIb IN T174I DE; 124 nM in the data set on HIV-IIIb IN T174I BT. Also, in data set [1], the half-life came out at 3.3 h.
In the case of `Cc1cc2nc(-c3ccc4c(c3)c(C3CCN(S(C)(=O)=O)CC3)nn4C)sc2c(-c2ccc(Cl)cc2)c1[C@H](OC(C)(C)C)C(=O)O` [Compound 25, (S)-2-(tert-butoxy)-2-(7-(4-chlorophenyl)-5-methyl-2-(1-methyl-3-(1-(methylsulfonyl)piperidin-4-yl)-1H-indazol-5-yl)benzo[d]thiazol-6-yl)acetic acid], the EC50 with HIV-IIIb (wildtype) (setting [2]) is 10 nM; in the data set with HIV-IIIb IN T174I DE, 806 nM; with HIV-IIIb IN T174I BT it was 404 nM. For the same compound, in data set [1], the half-life was 4.25 h.
For `Cc1cc2nc(-c3ccc4c(c3)c(C3CCOC3)nn4C)sc2c(-c2ccc(Cl)cc2)c1[C@H](OC(C)(C)C)C(=O)O` (stereo partly drawn) [Compound 52, (2S)-2-(tert-butoxy)-2-(7-(4-chlorophenyl)-5-methyl-2-(1-methyl-3-(tetrahydrofuran-3-yl)-1H-indazol-5-yl)benzo[d]thiazol-6-yl)acetic acid], the figures for the EC50 in the data set on HIV-IIIb (wildtype) (setting [2]), in the data set on HIV-IIIb IN T174I DE and with HIV-IIIb IN T174I BT were 8 nM, 946 nM and 905 nM, respectively. This compound also gave a half-life in data set [1] of 3.72 h.
Consider `COCC(COC)N1CC(c2nn(C)c3ccc(-c4nc5cc(C)c([C@H](OC(C)(C)C)C(=O)O)c(-c6ccc(Cl)cc6)c5s4)cc23)C1` [Compound 61, (S)-2-(tert-butoxy)-2-(7-(4-chlorophenyl)-2-(3-(1-(1,3-dimethoxypropan-2-yl)azetidin-3-yl)-1-methyl-1H-indazol-5-yl)-5-methylbenzo[d]thiazol-6-yl)acetic acid], for which the results for the EC50 in the data set on HIV-IIIb (wildtype) (setting [2]), in the data set on HIV-IIIb IN T174I DE and in the data set with HIV-IIIb IN T174I BT were 7 nM, 2700 nM and 1610 nM, respectively. In data set [1], the half-life came out at 3.62 h.
In the case of `Cc1cc2nc(-c3ccc4c(c3)c(C3CCN(C5COC5)C3)nn4C)sc2c(-c2ccc(Cl)cc2)c1[C@H](OC(C)(C)C)C(=O)O` (stereo partly drawn) [Compound 70, (2S)-2-(tert-butoxy)-2-(7-(4-chlorophenyl)-5-methyl-2-(1-methyl-3-(1-(oxetan-3-yl)pyrrolidin-3-yl)-1H-indazol-5-yl)benzo[d]thiazol-6-yl)acetic acid], the EC50 with HIV-IIIb (wildtype) (setting [2]) came out at 7 nM; with HIV-IIIb IN T174I DE, 942 nM; in the data set with HIV-IIIb IN T174I BT, 587 nM. The same compound registered a half-life in data set [1] of 5.87 h.
The corresponding values for `COCCOC(=O)N1CCC(c2nn(C)c3ccc(-c4nc5cc(C)c([C@H](OC(C)(C)C)C(=O)O)c(-c6ccc(Cl)cc6)c5s4)cc23)C1` (stereo partly drawn) [Compound 73, (2S)-2-(tert-butoxy)-2-(7-(4-chlorophenyl)-2-(3-(1-((2-methoxyethoxy)carbonyl)pyrrolidin-3-yl)-1-methyl-1H-indazol-5-yl)-5-methylbenzo[d]thiazol-6-yl)acetic acid] are 6 nM, 823 nM, 720 nM and 3.05 h.
On to `CC(=O)N1CCC(c2nn(C)c3ccc(-c4nc5cc(C)c([C@H](OC(C)(C)C)C(=O)O)c(-c6ccc(Cl)cc6)c5s4)cc23)C1` (stereo partly drawn) [Compound 74, (2S)-2-(2-(3-(1-acetylpyrrolidin-3-yl)-1-methyl-1H-indazol-5-yl)-7-(4-chlorophenyl)-5-methylbenzo[d]thiazol-6-yl)-2-(tert-butoxy)acetic acid], for which the concentration giving a half-maximal response (EC50) in the data set with HIV-IIIb (wildtype) (setting [2]) is 10 nM; in the data set on HIV-IIIb IN T174I DE, 587 nM; in the data set on HIV-IIIb IN T174I BT, 349 nM. In data set [1], the half-life was found to be 3.32 h.
For `COCCN1CCCC(c2nn(C)c3ccc(-c4nc5cc(C)c([C@H](OC(C)(C)C)C(=O)O)c(-c6ccc(Cl)cc6)c5s4)cc23)C1` (stereo partly drawn) [Compound 77, (2S)-2-(tert-butoxy)-2-(7-(4-chlorophenyl)-2-(3-(1-(2-methoxyethyl)piperidin-3-yl)-1-methyl-1H-indazol-5-yl)-5-methylbenzo[d]thiazol-6-yl)acetic acid] the same measures were 9 nM, 3270 nM, 1810 nM and 2.17 h.
Take `Cc1cc2nc(-c3ccc4c(c3)c(N3CCN(C)C3=O)nn4C)sc2c(-c2ccc(Cl)cc2)c1[C@H](OC(C)(C)C)C(=O)O` [Compound 80, (S)-2-(tert-butoxy)-2-(7-(4-chlorophenyl)-5-methyl-2-(1-methyl-3-(3-methyl-2-oxoimidazolidin-1-yl)-1H-indazol-5-yl)benzo[d]thiazol-6-yl)acetic Acid]: the EC50 was found to be 13 nM in the data set on HIV-IIIb (wildtype) (setting [2]), 2280 nM in the data set on HIV-IIIb IN T174I DE and 1510 nM in the data set with HIV-IIIb IN T174I BT. Besides, in data set [1], the half-life is 5.42 h.
On to `Cc1cc2nc(-c3ccc4c(c3)c(N3CC[C@@H](N(C)C)C3)nn4C)sc2c(-c2ccc(Cl)cc2)c1[C@H](OC(C)(C)C)C(=O)O` [Compound 92, (S)-2-(tert-butoxy)-2-(7-(4-chlorophenyl)-2-(3-((R)-3-(dimethylamino)pyrrolidin-1-yl)-1-methyl-1H-indazol-5-yl)-5-methylbenzo[d]thiazol-6-yl)acetic acid], for which the EC50 stood at 14 nM in the data set on HIV-IIIb (wildtype) (setting [2]), 1940 nM with HIV-IIIb IN T174I DE and 938 nM in the data set with HIV-IIIb IN T174I BT. Also, the half-life in data set [1] turned out to be 6.05 h.
The corresponding values for `COCCN1CCN(c2nn(C)c3ccc(-c4nc5cc(C)c([C@H](OC(C)(C)C)C(=O)O)c(-c6ccc(Cl)cc6)c5s4)cc23)CC1` [Compound 98, (S)-2-(tert-butoxy)-2-(7-(4-chlorophenyl)-2-(3-(4-(2-methoxyethyl)piperazin-1-yl)-1-methyl-1H-indazol-5-yl)-5-methylbenzo[d]thiazol-6-yl)acetic acid] are 4 nM, 516 nM, 290 nM and 3.17 h.
The corresponding values for `CCOCCN1CCN(c2nn(C)c3ccc(-c4nc5cc(C)c([C@H](OC(C)(C)C)C(=O)O)c(-c6ccc(Cl)cc6)c5s4)cc23)CC1` [Compound 99, (S)-2-(tert-butoxy)-2-(7-(4-chlorophenyl)-2-(3-(4-(2-ethoxyethyl)piperazin-1-yl)-1-methyl-1H-indazol-5-yl)-5-methylbenzo[d]thiazol-6-yl)acetic Acid] are 6 nM, 759 nM, 485 nM and 4.33 h.
The corresponding values for `Cc1cc2nc(-c3ccc4c(c3)c(N3CCN(CC5CC5)CC3)nn4C)sc2c(-c2ccc(Cl)cc2)c1[C@H](OC(C)(C)C)C(=O)O` [Compound 100, (S)-2-(tert-butoxy)-2-(7-(4-chlorophenyl)-2-(3-(4-(cyclopropylmethyl)piperazin-1-yl)-1-methyl-1H-indazol-5-yl)-5-methylbenzo[d]thiazol-6-yl)acetic acid] are 10 nM, 3590 nM, 1880 nM and 3.23 h.

Broadly, the EC50 is the concentration needed to bring the measured effect to its halfway point. One may read the half-life as the time in which the quantity being followed falls by half. Low values mean fast loss, high ones slow loss.

The values are drawn from patent US10800772B2 (Gilead Sciences, Inc., priority 2016, dated 2020).
